Tests used:
Type in all cases: cell-based
[1] = tested on: E. coli DH5α; assay: Antibacterial activity: MIC and growth curve against E. coli DH5α in 96-well plate; conditions: minimal inhibitory concentration against E. coli DH5α; 96-well plate, 5×10^5 CFU/mL, 37° C., judged after 8 h
In short: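 Log-phase DH5α (OD600 about 0.5, 37° C, 185 rpm in LB) was pelleted, resuspended in fresh LB and seeded at 5×10^5 CFU/mL with recombinant protein at 50, 25 and 12.5 μg/mL (two-fold series), in triplicate. Plates were shaken at 175 rpm, 37° C, and OD600 was read every 30 min. MIC was the lowest concentration with no growth.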

[2] = tested on: E. coli BL21; assay: MIC against Gram-negative bacteria: E. coli BL21; conditions: 5×10^5 CFU/mL; for MIC against E. coli BL21: 96-well plate, 37° C., 10 h
In short: (§1)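 Bacteria grown in LB at 37° C to McFarland 0.5, resuspended and seeded at 5×10^5 CFU/mL in 96-well plates. Purified human EGF-domain proteins two-fold serially diluted, triplicate wells; cultured at 37° C, shaking 175 rpm. MIC = lowest protein concentration with no growth.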

[3] = tested on: Pseudomonas aeruginosa; assay: MIC against Gram-negative bacteria: Pseudomonas aeruginosa; conditions: 5×10^5 CFU/mL; for MIC against P. aeruginosa: 96-well plate, 37° C., 10 h
In short: as §1

[4] = tested on: Klebsiella pneumonia; assay: MIC against Gram-negative bacteria: Klebsiella pneumonia; conditions: 5×10^5 CFU/mL; for MIC against K. pneumonia: 96-well plate, 37° C., 10 h
In short: as §1

[5] = tested on: Enterobacter cloacae; assay: MIC against Gram-negative bacteria: Enterobacter cloacae; conditions: 5×10^5 CFU/mL; for MIC against E. cloacae: 96-well plate, 37° C., 10 h
In short: as §1

[6] = tested on: Aeromonas hydrophila; assay: MIC against Gram-negative bacteria: Aeromonas hydrophila; conditions: 5×10^5 CFU/mL; for MIC against A. hydrophila: 96-well plate, 37° C., 10 h
In short: as §1

[7] = tested on: Citrobacter diversus; assay: MIC against Gram-negative bacteria: Citrobacter diversus; conditions: 5×10^5 CFU/mL; for MIC against C. diversus: 96-well plate, 37° C., 10 h
In short: as §1

[8] = tested on: Moraxella catarrhalis; assay: MIC against Gram-negative bacteria: Moraxella catarrhalis; conditions: 5×10^5 CFU/mL; for MIC against M. catarrhalis: 96-well plate, 37° C., 10 h
In short: as §1

[9] = tested on: Proteus mirabilis; assay: MIC against Gram-negative bacteria: Proteus mirabilis; conditions: 5×10^5 CFU/mL; for MIC against P. mirabilis: 96-well plate, 37° C., 10 h
In short: as §1

[10] = tested on: Proteus vulgaris; assay: MIC against Gram-negative bacteria: Proteus vulgaris; conditions: 5×10^5 CFU/mL; for MIC against P. vulgaris: 96-well plate, 37° C., 10 h
In short: as §1

[11] = tested on: Serratia marcescens; assay: MIC against Gram-negative bacteria: Serratia marcescens; conditions: 5×10^5 CFU/mL; for MIC against S. marcescens: 96-well plate, 37° C., 10 h
In short: as §1

[12] = E. coli BL21, 10 h cultivation at 37° C.
[13] = P. aeruginosa, 10 h cultivation at 37° C.
[14] = K. pneumonia, 10 h cultivation at 37° C.
[15] = E. cloacae, 10 h cultivation at 37° C.
[16] = A. hydrophila, 10 h cultivation at 37° C.
[17] = C. diversus, 10 h cultivation at 37° C.
[18] = M. catarrhalis, 10 h cultivation at 37° C.
[19] = P. mirabilis, 10 h cultivation at 37° C.
[20] = P. vulgaris, 10 h cultivation at 37° C.
[21] = S. marcescens, 10 h cultivation at 37° C.

Row | Substance | MIC [1] [µg/mL] | MIC against E. coli BL21 [2] [µg/mL] | MIC against P. aeruginosa [3] [µg/mL] | MIC against K. pneumonia [4] [µg/mL] | MIC against E. cloacae [5] [µg/mL] | MIC against A. hydrophila [6] [µg/mL] | MIC against C. diversus [7] [µg/mL] | MIC against M. catarrhalis [8] [µg/mL] | MIC against P. mirabilis [9] [µg/mL] | MIC against P. vulgaris [10] [µg/mL] | MIC (μg/mL) E. coli BL21 [2, 12] [µg/mL] | MIC (μg/mL) P. aeruginosa [3, 13] [µg/mL] | MIC (μg/mL) K. pneumonia [4, 14] [µg/mL] | MIC (μg/mL) E. cloacae [5, 15] [µg/mL] | MIC (μg/mL) A. hydrophila [6, 16] [µg/mL] | MIC (μg/mL) C. diversus [7, 17] [µg/mL] | MIC (μg/mL) M. catarrhalis [8, 18] [µg/mL] | MIC (μg/mL) P. mirabilis [9, 19] [µg/mL] | MIC (μg/mL) P. vulgaris [10, 20] [µg/mL] | MIC (μg/mL) S. marcescens [11, 21] [µg/mL] | also measured
1 | PRT501 (CGCNPVGSASDEPCTGPCVCKENVEGKACDRCKPGFYNLKEKNPRGCSE; listed as Homo sapiens) | 12.5 | 25 | 50 | 25 | 12.5 | 25 | 12.5 | 25 | 12.5 | 25 |  |  |  |  |  |  |  |  |  |  | MIC against S. marcescens [11]: 12.5 µg/mL
2 | PRT418 (DINECSSSPCSQECANVYGSYQCYCRRGYQLSDVDGVTCE; listed as Homo sapiens) | 12.5 |  |  |  |  |  |  |  |  |  |  |  |  |  |  |  |  |  |  |  | MIC [2, 12]: 12.5 µg/mL; MIC [3, 13]: 12.5 µg/mL; MIC [4, 14]: 50 µg/mL; MIC [5, 15]: 12.5 µg/mL; MIC [6, 16]: 25 µg/mL; MIC [7, 17]: 50 µg/mL; MIC [8, 18]: 25 µg/mL; MIC [9, 19]: 12.5 µg/mL; MIC [10, 20]: 25 µg/mL; MIC [11, 21]: 50 µg/mL
3 | PRT475 (VQNTCKDNPCGRGQCLITQSPPYYRCVCKHPYTGPSCS; listed as Homo sapiens) | 50 | 12.5 | 50 | 25 | 25 | 25 | 25 | 12.5 | 50 | 12.5 |  |  |  |  |  |  |  |  |  |  | MIC against S. marcescens [11]: 50 µg/mL
4 | PRT178 (SGVTCADGPCFNGGLCVGGADPDSAYICHCPPGFQGSNCE; listed as Homo sapiens) | 25 |  |  |  |  |  |  |  |  |  | 50 | 25 | 12.5 | 50 | 12.5 | 50 | 12.5 | 50 | 12.5 | 25 | 
5 | PRT155 (APGPCAAQPCRNGGVCTSRPEPDPQHPAPAGEPGYSCTCPAGISGANCQ; listed as Homo sapiens) | 12.5 |  |  |  |  |  |  |  |  |  | 25 | 12.5 | 25 | 12.5 | 25 | 12.5 | 25 | 12.5 | 25 | 12.5 | 
6 | PRT264 (SGQCLCRSGFAGTACELCAPGAFGPHCQAC; listed as Homo sapiens) | 12.5 |  |  |  |  |  |  |  |  |  | 50 | 12.5 | 50 | 12.5 | 25 | 50 | 25 | 12.5 | 25 | 12.5 | 

From patent publication US9833497B2, “Human originated EGF domain proteins and use of the same” (CHENGDU SOURCEBIO LIMITED-LIABILITY COMPANY, priority 2013, dated 2017)
